Data on 38 compounds can be found in patent US8946439B2, “Amide compounds, compositions and uses thereof” (Evotec AG, priority 2008, dated 2015).

Where two headings read alike, the source gives them in different places.

One assay concerns the target T1, hP2X2/3H (Homo sapiens, UniProt P56373+Q9UBL9).
T1 construct: expressed in transfected cells; host or cells: e.g. HEK293 or 1321N1
T1 sequence (Q9UBL9 1-471): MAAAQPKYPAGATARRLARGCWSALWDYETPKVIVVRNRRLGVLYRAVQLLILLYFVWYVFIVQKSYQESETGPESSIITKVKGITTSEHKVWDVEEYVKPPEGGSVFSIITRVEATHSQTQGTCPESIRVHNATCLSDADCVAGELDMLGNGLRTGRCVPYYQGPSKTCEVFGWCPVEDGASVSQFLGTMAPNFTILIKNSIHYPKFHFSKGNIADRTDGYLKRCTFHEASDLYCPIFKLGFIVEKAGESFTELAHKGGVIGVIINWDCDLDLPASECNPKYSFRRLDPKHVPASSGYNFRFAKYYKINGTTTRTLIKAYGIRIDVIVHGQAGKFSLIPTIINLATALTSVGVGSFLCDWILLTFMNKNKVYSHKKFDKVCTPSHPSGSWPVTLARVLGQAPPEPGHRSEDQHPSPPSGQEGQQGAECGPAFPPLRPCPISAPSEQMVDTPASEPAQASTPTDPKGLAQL
T1 sequence (P56373 1-397): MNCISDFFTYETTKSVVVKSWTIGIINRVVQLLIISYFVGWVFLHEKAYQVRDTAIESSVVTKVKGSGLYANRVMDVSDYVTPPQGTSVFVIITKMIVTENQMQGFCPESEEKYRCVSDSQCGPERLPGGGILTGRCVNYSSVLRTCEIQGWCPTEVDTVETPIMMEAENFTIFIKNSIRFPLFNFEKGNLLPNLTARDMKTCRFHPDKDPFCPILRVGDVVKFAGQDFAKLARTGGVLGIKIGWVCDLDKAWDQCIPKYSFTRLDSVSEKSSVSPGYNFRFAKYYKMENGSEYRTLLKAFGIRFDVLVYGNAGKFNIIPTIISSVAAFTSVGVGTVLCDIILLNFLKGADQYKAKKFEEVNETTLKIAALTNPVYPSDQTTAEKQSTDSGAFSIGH
In words: Calcium uptake assay (P2X antagonist assay), P2X2/3 heteromer. It counts as cell-based. The following applies: hP2X2/3H. Summed up: (§1)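 Stably or transiently transfected HEK293 or 1321N1 cells; the heteromer is made by adding P2X3 to a P2X2-stable line, with heteromer function isolated pharmacologically. The peak-minus-baseline FLIPR calcium signal gives % inhibition and a 4-parameter-logistic IC50.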

A further assay concerns the target T2, hP2X3 (Homo sapiens, UniProt P56373).
T2 construct: expressed in transfected cells; host or cells: e.g. HEK293 or 1321N1
T2 sequence (P56373 1-397): T1 sequence (P56373 1-397)
In words: Calcium uptake assay (P2X antagonist assay), P2X3 homomer. To be noted: hP2X3. Type of assay: cell-based. The procedure, abridged: as §1

The mark [1] stands for this setting: Ca influx (calcium uptake assay), read-out: IC50 hP2X2/3H.
Where [2] appears, read: Ca influx (calcium uptake assay), read-out: IC50 hP2X3.
The mark [3] stands for this setting: calcium uptake assay, read-out: IC50 hP2X2/3H (nM), Ca Influx.
Where [4] appears, read: calcium uptake assay, read-out: IC50 hP2X3 (nM), Ca Influx.

As for `Cc1ccc(-c2cc(OCCO)cc(C(=O)N[C@H](C)c3ccc(C)nc3)c2)nc1` [Compound 329], the IC50 was 100 to 500 nM on hP2X2/3H (setting [1]) and below 100 nM at hP2X3 (setting [2]).
Turning to `Cc1ccc(CNC(=O)c2cc(-c3ccc(Cl)c(F)c3)cc(S(C)(=O)=O)c2)cn1` [Compound 136], the figures for the IC50 on hP2X2/3H (setting [3]) and on hP2X3 (setting [4]) were above 1000 nM and 501 to 1000 nM, respectively.
As to `COC1CCN(CC(O)c2cc(C(=O)NCc3ccc(C)nc3)cc(-c3ccc(C)cc3)c2)CC1` (stereo not shown) [Compound 389], the IC50 at hP2X2/3H (setting [1]) is 100 to 500 nM; on hP2X3 (setting [2]), below 100 nM.
With `Cc1ccc(-c2cc(C(=O)NCc3cnc(C)nc3)cc(C(=O)N3CC3C)c2)cc1` (stereo not shown) [Compound 31, 4′-Methyl-5-(2-methylaziridine-1-carbonyl)-N-((2-methylpyrimidin-5-yl)methyl)biphenyl-3-carboxamide], the IC50 at hP2X2/3H (setting [3]) was 501 to 1000 nM; on hP2X3 (setting [4]) it was below 100 nM.
`Cc1ccc(-c2cc(C(=O)N[C@H](C)c3ccc(C)nc3)cc(C(C)O)c2)nc1` (stereo partly shown) [Compound 331]: the IC50 at hP2X2/3H (setting [1]) and at hP2X3 (setting [2]) was below 100 nM each time.
With `Cc1ccc(-c2cc(C(=O)N[C@H](C)c3ccc(C(F)(F)F)nc3)cc(C(=O)N3CCCC3)c2)nc1` [Compound 135], the IC50 on hP2X2/3H (setting [3]) and on hP2X3 (setting [4]) was below 100 nM in each case.
Take `CCN(CC)CC(O)c1cc(C(=O)N[C@H](C)c2ccc(C)nc2)cc(-c2ccc(C)cn2)c1` (stereo partly drawn) [Compound 342, 3-(2-(Diethylamino)-1-hydroxyethyl)-5-(5-methylpyridin-2-yl)-N—((R)-1-(6-methylpyridin-3-yl)ethyl)benzamide]: the IC50 on hP2X2/3H (setting [1]) is 100 to 500 nM; on hP2X3 (setting [2]) it was below 100 nM.
`COCCOc1cc(C(=O)NCc2ccc(C)nc2)cc(-c2ccc(C)cc2)c1` [Compound 248, 5-(2-Methoxyethoxy)-4′-methyl-N-((6-methylpyridin-3-yl)methyl)biphenyl-3-carboxamide]: the IC50 at hP2X2/3H (setting [1]) and at hP2X3 (setting [2]) was below 100 nM in each case.
As for `CCOC(=O)c1cc(C(=O)NCc2ccc(C)nc2)cc(-c2ccc(C)cc2)c1` [Compound 88], the IC50 is below 100 nM on hP2X2/3H (setting [3]) and 100 to 500 nM on hP2X3 (setting [4]).
For the compound `COc1ccc(CNC(=O)c2cc(-c3ccc(C)cc3)cc(S(C)(=O)=O)c2)cn1` [Compound 144], the IC50 is below 100 nM on hP2X2/3H (setting [3]) and 100 to 500 nM on hP2X3 (setting [4]).
Take `Cc1ccc(-c2cc(C(=O)NC(C)c3ccc(Cl)cc3Cl)cc(S(C)(=O)=O)c2)nc1` (stereo not shown) [Compound 387]: the IC50 is above 1000 nM at hP2X2/3H (setting [1]) and 100 to 500 nM on hP2X3 (setting [2]).
In the same order, the values of `Cc1ccc(-c2cc(CO)cc(C(=O)NCc3cnc(C)nc3)c2)c(C#N)c1` [Compound 304] are 100 to 500 nM and below 100 nM.
Consider `Cc1ccc(-c2cc(OC3CCOC3)cc(C(=O)N[C@H](C)c3cnc(C)nc3)c2)nc1` (stereo partly shown) [Compound 357], for which the IC50 at hP2X2/3H (setting [1]) was 100 to 500 nM; on hP2X3 (setting [2]), below 100 nM.
For the compound `Cc1ccc(-c2cc(C(=O)N[C@H](CO)c3ccc(C)nc3)cc(S(C)(=O)=O)c2)cc1` [Compound 257, (S)—N-(2-Hydroxy-1-(6-methylpyridin-3-yl)ethyl)-4′-methyl-5-(methylsulfonyl)biphenyl-3-carboxamide], the IC50 at hP2X2/3H (setting [1]) and on hP2X3 (setting [2]) was below 100 nM in each case.
On to `COCCOc1cc(C(=O)NCc2cnc(C)nc2)cc(-c2ccc(C)cc2C#N)c1` [Compound 262], for which the figures for the IC50 at hP2X2/3H (setting [1]) and on hP2X3 (setting [2]) were 100 to 500 nM and below 100 nM, respectively.
On the same counts, the results for `Cc1ccc(-c2cc(OC3COCC3O)cc(C(=O)N[C@H](C)c3cnc(C)nc3)c2)nc1` (stereo partly shown) [Compound 364] are 100 to 500 nM and below 100 nM.
For `Cc1ccc(CNC(=O)c2cc(-c3ccc(Cl)c(C(F)(F)F)c3)cc(S(C)(=O)=O)c2)cn1` [Compound 139], the IC50 on hP2X2/3H (setting [3]) and on hP2X3 (setting [4]) was above 1000 nM in each case.
For the compound `Cc1ccc(-c2cc(C(=O)NCc3cnc(C)nc3)cc(C(=O)N3CCCCC3)c2)cc1` [Compound 18, 4′-Methyl-N-((2-methylpyrimidin-5-yl)methyl)-5-(piperidine-1-carbonyl)biphenyl-3-carboxamide], the IC50 at hP2X2/3H (setting [3]) and on hP2X3 (setting [4]) was below 100 nM throughout.
Regarding `Cc1ccc(-c2cc(C(=O)NCc3ccc(Cl)nc3)cc(C(=O)N3CCCC3)c2)cc1` [Compound 91], the IC50 on hP2X2/3H (setting [3]) and at hP2X3 (setting [4]) was below 100 nM throughout.
Regarding `Cc1ccc(CNC(=O)c2cc(-c3ccc(Cl)cc3)cc(S(C)(=O)=O)c2)cn1` [Compound 138], the IC50 at hP2X2/3H (setting [3]) and at hP2X3 (setting [4]) was 100 to 500 nM each time.
For the compound `Cc1ccc(-c2cc(C(=O)NCc3ncc(C(F)(F)F)cc3Cl)cc(C(=O)N3CCCC3)c2)cc1` [Compound 74], the IC50 on hP2X2/3H (setting [3]) and on hP2X3 (setting [4]) was below 100 nM in each case.
Turning to `Cc1ccc(-c2cc(C(=O)NCc3ccc(C)nc3)cc(C(=O)N3C(C)CCC3C)c2)cc1` (stereo not shown) [Compound 189], the IC50 at hP2X2/3H (setting [3]) and on hP2X3 (setting [4]) was below 100 nM in each case.
For the compound `Cc1ccc(-c2cc(C(=O)NCc3ccc(C(F)(F)F)c(F)c3)cc(C(=O)N3CC[C@@H](O)C3)c2)nc1` [Compound 151], the IC50 at hP2X2/3H (setting [3]) is 100 to 500 nM; on hP2X3 (setting [4]), below 100 nM.
As for `COCCOc1cc(C(=O)N[C@H](C)c2ccc(C)nc2)cc(-c2ccc(C)cc2)c1` [Compound 249], the IC50 at hP2X2/3H (setting [1]) and on hP2X3 (setting [2]) was below 100 nM throughout.
Turning to `Cc1ccc(-c2cc(Oc3nccs3)cc(C(=O)N[C@H](C)c3ccc(C)nc3)c2)nc1` [Compound 264, (R)-3-(5-Methylpyridin-2-yl)-N-(1-(6-methylpyridin-3-yl)ethyl)-5-(thiazol-2-yloxy)benzamide], the IC50 at hP2X2/3H (setting [1]) and at hP2X3 (setting [2]) was below 100 nM in each case.
Turning to `Cc1ccc(-c2cc(OC3COCC3O)cc(C(=O)N[C@H](C)c3ccc(C)nc3)c2)c(C#N)c1` (stereo partly shown) [Compound 337], the IC50 on hP2X2/3H (setting [1]) and on hP2X3 (setting [2]) was below 100 nM in each case.
As to `Cc1ccc(-c2cc(C(=O)NCc3ccc(C)nc3)cc(C(=O)N3CCN(C(C)C)CC3)c2)cc1` [Compound 125], the IC50 on hP2X2/3H (setting [3]) is 100 to 500 nM; on hP2X3 (setting [4]) it was below 100 nM.
Consider `Cc1ccc([C@@H](C)NC(=O)c2cc(C(=O)N3CCCC3)cc(-c3ccc(Br)cc3)c2)cn1` [Compound 217], for which the IC50 at hP2X2/3H (setting [1]) and at hP2X3 (setting [2]) was below 100 nM in each case.
In the case of `Cc1ccc(-c2cc(C(=O)NCc3ccc(C)nc3)cc(C(=O)N3CC[C@H](N(C)C)C3)c2)cc1` [Compound 142], the IC50 at hP2X2/3H (setting [3]) was 100 to 500 nM; at hP2X3 (setting [4]), below 100 nM.
`Cc1ccc(-c2cc(C(=O)N[C@H](C)c3cnn(C)c3C(F)(F)F)cc(C(=O)N3CCCC3)c2)cc1` [Compound 107]: the IC50 is 501 to 1000 nM at hP2X2/3H (setting [3]) and 100 to 500 nM on hP2X3 (setting [4]).
Take `Cc1ccc(-c2cc(C(=O)N[C@H](C)c3cnc(C)nc3)cc(C(O)c3nccs3)c2)cc1` (stereo partly shown) [Compound 283]: the IC50 on hP2X2/3H (setting [1]) and at hP2X3 (setting [2]) was below 100 nM in each case.
Turning to `COc1ccc([C@@H](CO)NC(=O)c2cc(-c3ccc(C)cc3)cc(S(C)(=O)=O)c2)cn1` [Compound 206, (S)—N-(2-Hydroxy-1-(6-methoxypyridin-3-yl)ethyl)-4′-methyl-5-(methylsulfonyl)biphenyl-3-carboxamide], the IC50 at hP2X2/3H (setting [1]) and at hP2X3 (setting [2]) was below 100 nM in each case.
As for `Cc1ccc(-c2cc(Oc3nccs3)cc(C(=O)N[C@H](C)c3cnc(C)nc3)c2)cc1` [Compound 236, (R)-4′-Methyl-N-(1-(2-methylpyrimidin-5-yl)ethyl)-5-(thiazol-2-yloxy)biphenyl-3-carboxamide], the IC50 on hP2X2/3H (setting [1]) and at hP2X3 (setting [2]) was below 100 nM each time.
As for `Cc1ccc(-c2cc(C(=O)N[C@H](C)c3cnc(C)nc3)cc(C(O)CO)c2)cc1` (stereo partly shown) [Compound 361], the IC50 is 100 to 500 nM on hP2X2/3H (setting [1]) and below 100 nM at hP2X3 (setting [2]).
`Cc1ccc(-c2cc(C(=O)NCc3ccn4ccnc4c3)cc(C(=O)N3CCCC3)c2)cc1` [Compound 50]: the IC50 at hP2X2/3H (setting [3]) and on hP2X3 (setting [4]) was below 100 nM in each case.
For the compound `Cc1ccc(-c2cc(C(=O)NCC(C)C)cc(C(=O)N[C@@H](C)CO)c2)cc1` [Compound 2, (S)—N3-(1-Hydroxypropan-2-yl)-N5-isobutyl-4′-methylbiphenyl-3,5-dicarboxamide], the IC50 was above 1000 nM on hP2X2/3H (setting [3]) and 501 to 1000 nM on hP2X3 (setting [4]).
For `CCOC(=O)c1cc(C(=O)N[C@@H](C)CO)cc(-c2ccc(C)cc2)c1` [Compound 6, (S)-Ethyl 5-(1-hydroxypropan-2-ylcarbamoyl)-4′-methylbiphenyl-3-carboxylate], the IC50 fell in the range of 501 to 1000 nM at hP2X2/3H (setting [3]) and 100 to 500 nM at hP2X3 (setting [4]).
Take `Cc1ccc(-c2cc(C(=O)NCc3ccc4cccnc4c3)cc(S(C)(=O)=O)c2)cc1` [Compound 23]: the IC50 on hP2X2/3H (setting [3]) and at hP2X3 (setting [4]) was 100 to 500 nM throughout.
